{"source": "patent US20150231109A1", "about": "“COMBINATIONS (CATECHINS AND METHOTREXATE) FOR USE IN THE TREATMENT OF MELANOMAS” (UNIVERSIDAD DE MURCIA, priority 2012, published 2015)", "key": {"[1]": {"system": "IGR39 cells", "test": "Matrigel Boyden chamber invasion assay, IGR39", "type": "cell-based", "settings": "IGR39, MTX 72 h, 1 μM", "protocol": "FIGS. 1A-J. Methotrexate up-regulates the expression of MITF. A, The MITF rheostat, and the two-step strategy for melanoma therapy: Drug A induces MITF, driving cells to be sensitive to Drug B. B, MTX (1 μM) increases MITF mRNA determined using quantitative and conventional RT-PCR from indicated cell lines. […] C, MTX (1 μM) induces MITF protein assayed by western blotting (WB) (*P<0.05). D, Immunofluorescence of control or MTX-treated (3 h) 501 MEL cells using anti-MITF and DAPI. E, Matrigel assay of control and MTX-treated SKMEL-28 cells (48 h, 1 μM) and IGR39 (72 h, 1 μM) cells. […] Scale bar refers to all panels. F, Chromatin immunoprecipitation on TYR and Pmel17 genes of control and MTX-treated (4 h, 1 μM) SK-MEL-28 cells with qRT-PCR after immunoprecipitation with IgG, or MITF and HDAC3 antibodies. Error bars indicate standard deviations of triplicates; experiment reproduced four times with similar results. G, Scanning electron micrographs of control and MTX-treated (1 μM, 24 h) SK-MEL-28 cells. H, Semiquantitative RT PCR of TYR, TYRP1, Pmel17, MART1, and Rab27a mRNA. […]\nInvasion assays were performed using a cell invasion assay kit (BD Bioscience). […] The invading cells were stained and quantified measuring the surface occupied by stained cells with a cell counter plug-in of the Image J software."}, "[2]": {"system": "SK-MEL-28 cells", "test": "Proliferation assay, SK-MEL-28", "type": "cell-based, human", "settings": "SK-MEL-28, MTX alone"}, "[3]": {"system": "melanoma (SK-MEL-28, G361) cell lines", "test": "MTX/TMECG synergy titration (apoptosis), melanoma cell lines", "type": "cell-based, human", "settings": "apoptosis after 4 days", "protocol": "FIGS. 5A-D. The effects of MTX and/or TMECG on the growth of melanoma cell lines. A, Viability was determined by the MTT assay. Cells were treated with vehicle only (•), 10 μM TMECG ( ), 1 μM MTX (▴) or with a combination of 1 μM MTX+10 μM TMECG (▾). Table outlines p53, BRAF, NRAS, and PTEN status with specific amino acid substitutions. […] B, MTX/TMECG synergy test for melanoma and non-melanoma cancer cells in which drugs were combined in 6×6 matrices where the concentration of one drug was increased along each axis. The lowest concentration was 0 and the highest concentration was chosen close to the IC50 for each drug in each assayed cell line. Apoptosis was determined after 4 days of treatment. Data were obtained in triplicate in two independent experiments. […]\nThe induction of apoptosis was assessed by performing cytoplasmic histone-associated DNA fragmentation using a kit from Roche Diagnostics (Barcelona, Spain). […] The amount of nucleosomes is photometrically quantified at 405 nm by the peroxidase activity retained in the immunocomplexes. Apoptosis was defined as the specific enrichment of mono- and oligonucleosomes in the cytoplasm and was calculated by dividing the absorbance of treated samples by the absorbance of untreated samples after correcting for the number of cells. […]"}, "[4]": {"system": "E2F1", "test": "MALDI-TOF mass spectroscopy of immunoprecipitated E2F1 tryptic digests from SK-MEL-28 cells", "type": "cell-based, human", "settings": "SK-MEL-28, 24 h, normalized to internal matrix control", "protocol": "SK-MEL-28 whole cell lysates were immunoprecipitated as described above but with two variations. First, the lysis and dilution buffers contained 2.5 μM trichostatin (a potent deacetylase inhibitor) and 20 μM trans-2-phenylcyclo-propylamine (an irreversible inhibitor of lysine-specific demethylase 1, LSD1). Second, the E2F1 antibody was covalently coupled to Dynabeads® (Invitrogen). After immunoprecipitation and elution, bound proteins were digested with trypsin according to standard procedures (Shevchenko). Data were recorded and processed with Agilent MassHunter Workstation Software for obtaining the Peptide Mass Fingerprint (PMF). The PMF result mass spectra were searched against the E2F1 protein sequence with carbamidomethylation of cysteine as fixed modification and methylation and acetylation of lysine residues, oxidation of methionine residues and phosphorylation of serine residues as variable modifications. Peptide mass tolerance was set to 50 ppm and a maximum of three missed cleavages was considered."}}}
{"smiles": "CN(Cc1cnc2nc(N)nc(N)c2n1)c1ccc(C(=O)N[C@@H](CCC(=O)O)C(=O)O)cc1", "note": "[MTX, methotrexate]", "values": [{"measurement": "invasiveness", "setting": "[1]", "result": "eliminated invasiveness"}, {"measurement": "proliferation", "setting": "[2]", "result": "reduced proliferation"}, {"measurement": "sensitivity to MTX alone, melanoma versus non-melanoma lines", "setting": "[3]", "result": "substantially less sensitive"}, {"measurement": "Intensity of phosphorylated (S364) E2F1 peptide", "setting": "[4]; CN 11", "result": 24}, {"measurement": "Intensity of phosphorylated (S31) E2F1 peptide", "setting": "[4]; CN 46", "result": 12}, {"measurement": "Intensity of hyperacetylated (K117,120,125) E2F1 peptide", "setting": "[4]; CN 49", "result": 329}, {"measurement": "Intensity of non-methylated (K185) E2F1 peptide (K)NHIQWLGSHTTVGVGGR(L)", "setting": "[4]; CN 64", "result": 379}, {"measurement": "Intensity of non-phosphorylated (S31) E2F1 peptide", "setting": "[4]; CN 295", "result": 312}, {"measurement": "Intensity of non-phosphorylated (S364) E2F1 peptide", "setting": "[4]; CN 318", "result": 310}, {"measurement": "Intensity of non-acetylated E2F1 peptide (K)SPGEK(S)", "setting": "[4]; CN 320", "result": 20}, {"measurement": "Intensity of non-acetylated E2F1 peptide (R)HPGK(G)", "setting": "[4]; CN 325", "result": 16}, {"measurement": "Intensity of methylated (K185) E2F1 peptide", "setting": "[4]; CN 355", "result": 18}]}
